In series [1] the test system is esophageal stricture after entire circumference (100%) ESD. The experiment in a line: esophageal entire circumference (100%) ESD model, degree of esophageal stricture by macroscopical findings and histopathological analysis (Masson staining). The format is in vivo. From the text:
For the production of an esophageal entire circumference (100%) ESD model, miniature pigs for experiments were used.
As miniature pigs, three groups of a physiological saline administered group, a steroid preparation (Kenacort) administered group, and a CHST15 siRNA (manufactured by Hokkaido System Science Co., Ltd., lot number: 40481638) administered group were used (n=1/group). The miniature pig in each group was orally inserted with an upper gastrointestinal endoscope under general anesthesia and respiratory control, and an entire circumference (100%) ESD was performed using a dual knife with a total length of […] between 15 cm and 25 cm from the portal dentition. Into an entire circumference artificial ulcer immediately after preforming ESD was injected 2 mL in total of an administration solution (physiological saline, steroid preparation, CHST15 siRNA, 250 nM solution) using an endoscopic injection needle at a total of 20 locations so as to evenly cover the entire circumference from the ulcer bottom.
If no treatment is performed after ESD, esophageal stricture will develop within 2 weeks and food will not pass through, and the miniature pig will die within 4 weeks thereafter, so that the observation period after a single time administration was set to 2 weeks, the entire group was slaughtered after 2 weeks (Day 14), and the degree of esophageal stricture was investigated by macroscopical findings, and histopathological analysis (Masson staining).

Series [2] has as its system stricture esophageal tissue after ESD. As to conditions: half circumferential (50%) ESD; Document 14; cited from earlier work.
[3] abbreviates: single local injection immediately after ESD, Day 14, n=1/group.

Consider one substance from US12527812B2, “Esophageal stricture suppressing agent” (priority 2019, dated 2026).

Regarding “CHST15 siRNA: siRNA having a structure in which the RNAs described in SEQ ID NOs:1 and 2 are hybridized; suppresses expression of the CHST15 gene (chain 1 GGAGCAGAGCAAGAUGAAUACAAUCAG; chain 2 GAUUGUAUUCAUCUUGCUCUGCUCCAU; chemistry not given here)”, in series [1] (consideration / summary of Example 1), the “suppressing effect of esophageal stricture after entire circumference ESD (overall)” value is given as “remarkable stricture suppressing effect”. In series [1] (pig, in vivo), the “damage of the muscular layer (pathological findings, Masson staining)” value was “no damage of the muscular layer was observed”. In addition, in series [1] (setting [3]), the “artificial ulcer repair / regenerated epithelium (pathological findings, Masson staining)” value is “almost covered with regenerated epithelium”; the “edible state (macroscopical findings)” value is “edible”; the “esophageal stricture / obstruction (macroscopical findings)” value is reported as “no stricture or obstruction”; the “fibrosis deeper than the ulcer floor (pathological findings, Masson staining)” value is listed as “no pathological fibrosis”. Moreover, the “shortening of esophageal length (macroscopical findings)” value in series [1] (single local injection into artificial ulcer immediately after ESD, 2 mL in total at 20 locations (CHST15 siRNA 250 nM solution), Day 14, n=1/group) is listed as “substantially not observed”. For the same substance, the “fibrosis when expression of CHST15 mRNA is suppressed” value in series [2] was “fibrosis is suppressed”.
